Experimental data reported in patent US20230183243A1, “HETEROARYL DERIVATIVES AND PHARMACEUTICAL COMPOSITION COMPRISING SAME AS ACTIVE INGREDIENT” (VORONOI INC., priority 2019, published 2023).

Tests used:
MDA-MB-231 cells = assay: Inhibition of proliferation of triple-negative breast cancer cells, CellTiter-Glo; type: cell-based; settings: Homo sapiens, 120 h; MDA-MB-231, cultured for 5 days
Protocol: Specifically, the following test was performed in order to evaluate the inhibitory activity of the compound according to the present invention against the cell proliferation in triple-negative breast cancer cells (TNBCs).
Cells were seeded in 180 μL of a culture broth at a density of 2,000 to 3,000 cells/well in a white clear bottom 96-well plate (Corning) according to the growth ability of each cell, and then cultured for 24 hours under conditions of 5% CO2 and 37° C. Thereafter, the compound was prepared by diluting a 10 mM stock solution three-fold with 100% DMSO at a total of 12 concentrations so that a peak concentration of the compound was in a range of 10 mM to 0.05 μM, and the diluted compound was then diluted in each cell culture medium so that a final concentration of the compound was in a range of 100 μM to 0.5 nM. 20 μL of a diluted solution diluted with a medium was added to the cell solution in which cells were seeded in the 96-well plate on the previous day so that a final concentration of the diluted solution was in a range of 10 μM to 0.05 nM. Each of the cells was cultured for 5 days. To check cell viability, a mixture provided in a CellTiter-Glo® Luminescent Cell Viability Assay Kit (Promega) was added to each of the cultured cell media, and cultured for another 10 minutes under a condition of 37° C. Then, a degree of luminescence (fluorescence) was measured. A degree of inhibition of the cell growth according to the treatment concentration of each of the compounds was calculated based on the fluorescence of the solvent control cells which were not treated with the compound.

TTK = biological target: T1, TTK (Homo sapiens, UniProt P33981); assay: TTK enzyme activity, ADP-Glo kinase assay; type: biochemical; set-up: purchased SignalChem T20-10G; settings: purified human TTK, ATP 10 μM, 25° C., 2 hours
T1 sequence (P33981 1-857): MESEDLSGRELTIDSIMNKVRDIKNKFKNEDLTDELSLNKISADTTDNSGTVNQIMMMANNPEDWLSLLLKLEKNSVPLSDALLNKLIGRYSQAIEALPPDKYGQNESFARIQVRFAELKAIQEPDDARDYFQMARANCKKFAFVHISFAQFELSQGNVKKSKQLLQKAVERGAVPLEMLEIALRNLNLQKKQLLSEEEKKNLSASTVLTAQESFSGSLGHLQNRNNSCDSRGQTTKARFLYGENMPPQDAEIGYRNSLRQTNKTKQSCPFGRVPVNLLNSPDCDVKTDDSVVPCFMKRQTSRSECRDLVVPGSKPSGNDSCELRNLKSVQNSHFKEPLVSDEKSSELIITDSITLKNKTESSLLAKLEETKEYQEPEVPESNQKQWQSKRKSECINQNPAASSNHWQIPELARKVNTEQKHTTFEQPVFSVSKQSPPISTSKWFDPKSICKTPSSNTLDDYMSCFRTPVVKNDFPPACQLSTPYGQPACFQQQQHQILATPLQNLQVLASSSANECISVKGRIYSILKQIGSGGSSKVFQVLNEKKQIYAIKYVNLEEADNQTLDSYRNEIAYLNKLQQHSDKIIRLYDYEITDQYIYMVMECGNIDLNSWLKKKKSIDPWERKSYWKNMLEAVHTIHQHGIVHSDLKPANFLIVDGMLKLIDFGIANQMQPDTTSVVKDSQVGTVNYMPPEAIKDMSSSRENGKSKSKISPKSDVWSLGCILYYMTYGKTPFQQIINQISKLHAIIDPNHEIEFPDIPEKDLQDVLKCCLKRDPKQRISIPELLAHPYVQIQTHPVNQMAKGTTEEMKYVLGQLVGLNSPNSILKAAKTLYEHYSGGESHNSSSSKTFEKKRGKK
Protocol: To evaluate an inhibitory activity of the compound according to the present invention against TTK (MPS1), an experiment was performed as follows.
Each of the Example compounds was reacted with a purified human TTK (SignalChem #T20-10G) enzyme to evaluate an ability to inhibit an enzyme using a method as described below. A composition of 40 mM Tris-HCl (pH 7.4), 20 mM MgCl2, 0.5 mg/mL BSA, and 50 μM DTT was used as a reaction buffer, and all reactions of test substances were performed in the reaction buffer. […] In the test, purified ATP (10 μM) and an enzyme substrate (0.2 μg) were reacted with a human TTK (25 ng) enzyme at 25° C. for 2 hours, and the enzyme activity was determined using an in vitro ADP-Glo™ kinase assay (Promega). […] The degree of inhibition of the enzyme activity according to the treatment concentration of each of the compounds was calculated based on the fluorescence of the enzyme activity of the solvent control which was not treated with the compound.

SMILES | GI50 (MDA-MB-231 cells) [µM] | IC50 (TTK) [µM]
COc1cc(-c2cnn(C3CCOCC3)c2)ccc1Nc1nc(NC2CCCCC2)c2c(C#N)c[nH]c2n1 [Example 19, 4-(cyclohexylamino)-2-((2-methoxy-4-(1-(tetrahydro-2H-pyran-4-yl)-1H-pyrazol-4-yl)phenyl)amino)-7H-pyrrolo[2,3-d] pyrimidine-5-carbonitrile] | < 0.1 | 0.05 to 0.2
COc1cc(N2CCCC2=O)ccc1Nc1nc(NC2CCC2)c2c(C#N)c[nH]c2n1 [Example 69, 4-(cyclobutylamino)-2-((2-methoxy-4-(2-oxopyrrolidin-1-yl)phenyl)amino)-7H-pyrrolo[2,3-d] pyrimidine-5-carbonitrile] | > 1 | < 0.05
CCCCNc1nc(Nc2ccc(-c3nncn3C)cc2OCC)nc2[nH]cc(C#N)c12 [Example 11, 4-(butylamino)-2-((2-ethoxy-4-(4-methyl-4H-1,2,4-triazol-3-yl)phenyl)amino)-7H-pyrrolo[2,3-d] pyrimidine-5-carbonitrile] | < 0.1 | < 0.05
CC(C)COc1cc(N2CCCC2=O)ccc1Nc1nc(NC2CCCC2)c2c(C#N)c[nH]c2n1 [Example 28, 4-(cyclopentylamino)-2-((2-isobutoxy-4-(2-oxopyrrolidin-1-yl)phenyl)amino)-7H-pyrrolo[2,3-d] pyrimidine-5-carbonitrile] | > 1 | 0.2 to 1
COc1cc(-c2c(C)noc2C)ccc1Nc1nc(NC2CCCCC2)c2c(C#N)c[nH]c2n1 [Example 18, 4-(cyclohexylamino)-2-((4-(3,5-dimethylisoxazol-4-yl)-2-methoxyphenyl)amino)-7H-pyrrolo[2,3-d] pyrimidine-5-carbonitrile] | < 0.1 | < 0.05
N#Cc1c[nH]c2nc(Nc3ccc(N4CCCC4=O)c4c3OCCO4)nc(NC3CCCCC3)c12 [Example 79, 4-(cyclohexylamino)-2-((8-(2-oxopyrrolidin-1-yl)-2,3-dihydrobenzo[b][1,4]dioxin-5-yl)amino)-7H-pyrrolo[2,3-d] pyrimidine-5-carbonitrile] | < 0.1 | < 0.05
COc1cc(-c2cncn2C)ccc1Nc1nc(NC2CCCC2)c2c(C#N)c[nH]c2n1 [Example 30, 4-(cyclopentylamino)-2-((2-methoxy-4-(1-methyl-1H-imidazol-5-yl)phenyl)amino)-7H-pyrrolo[2,3-d] pyrimidine-5-carbonitrile] | < 0.1 | < 0.05
CNc1nc(Nc2ccc(-c3ccnn3C)c3c2OCCO3)nc2[nH]cc(C#N)c12 [Example 75, 2-((8-(l-methyl-1H-pyrazol-5-yl)-2,3-dihydrobenzo[b][1,4]dioxin-5-yl)amino)-4-(methylamino)-1H-pyrrolo[2,3-d] pyrimidine-5-carbonitrile] | < 0.1 | < 0.05
CC[C@@H](C)Nc1nc(Nc2ccc(-c3ccnn3C)cc2OC)nc2[nH]cc(C#N)c12 [Example 10, (R)4-(sec-butylamino)-2-((2-methoxy-4-(1-methyl-1H-pyrazol-5-yl)phenyl)amino)-7H-pyrrolo[2,3-d] pyrimidine-5-carbonitrile 2,2,2-trifluoroacetate] | < 0.1 | < 0.05
COc1cc(-c2ccc(CN3CCN(C(C)=O)CC3)cc2)ccc1Nc1nc(NC2CCCCC2)c2c(C#N)c[nH]c2n1 [Example 23, 2-((4′-((4-acetylpiperazin-1-yl)methyl)-3-methoxy-[1,1′-biphenyl]-4-yl)amino)-4-(cyclohexylamino)-7H-pyrrolo[2,3-d] pyrimidine-5-carbonitrile] | < 0.1 | 0.05 to 0.2
C[C@@H](Oc1cc(C(=O)N(C)C)ccc1Nc1nc(O[C@H]2CC[C@@](C)(O)CC2)c2c(Cl)c[nH]c2n1)C(F)(F)F [Example 86, 4-((5-chloro-4-(((1s,4S)-4-hydroxy-4-methylcyclohexyl)oxy)-7H-pyrrolo[2,3-d]pyrimidin-2-yl)amino)-N,N-dimethyl-3-(((R)-1,1,1-trifluoropropan-2-yl)oxy)benzamide] | < 0.1 | < 0.05
CNc1nc(Nc2ccc(N3CCCC3=O)cc2OC)nc2[nH]cc(C(F)(F)F)c12 [Example 51, l-(3-methoxy-4-((4-(methylamino)-5-(trifluoromethyl)-7H-pyrrolo[2,3-d]pyrimidin-2-yl)amino)phenyl) pyrrolidin-2-one] | > 1 | 0.05 to 0.2
COc1cc(-c2ccn(C)n2)ccc1Nc1nc(NC2CCCC2)c2c(C#N)c[nH]c2n1 [Example 2, 4-(cyclopentylamino)-2-((2-methoxy-4-(1-methyl-1H-pyrazol-3-yl)phenyl)amino)-7H-pyrrolo[2,3-d] pyrimidine-5-carbonitrile] | < 0.1 | < 0.05
COc1cc(N2CCCC2=O)ccc1Nc1nc(NCC2CCC2)c2c(C#N)c[nH]c2n1 [Example 70, 4-((cyclobutylmethyl)amino)-2-((2-methoxy-4-(2-oxopyrrolidin-1-yl)phenyl)amino)-7H-pyrrolo[2,3-d] pyrimidine-5-carbonitrile] | > 1 | < 0.05
COc1cc(N2CCCC2=O)ccc1Nc1nc(NC(C)C)c2c(C#N)c[nH]c2n1 [Example 65, 4-(isopropylamino)-2-((2-methoxy-4-(2-oxopyrrolidin-1-yl)phenyl)amino)-7H-pyrrolo[2,3-d] pyrimidine-5-carbonitrile] | < 0.1 | < 0.05
COCC(C)(C)Nc1nc(Nc2ccc(N3CCCC3=O)cc2OC)nc2[nH]cc(C#N)c12 [Example 72, 4-((1-methoxy-2-methylpropan-2-yl)amino)-2-((2-methoxy-4-(2-oxopyrrolidin-1-yl)phenyl)amino)-7H-pyrrolo[2,3-d] pyrimidine-5-carbonitrile] | 0.1 to 1 | < 0.05
COc1cc(-c2c(C)noc2C)ccc1Nc1nc(NC2CCCC2)c2c(C#N)c[nH]c2n1 [Example 44, 4-(cyclopentylamino)-2-((4-(3,5-dimethylisoxazol-4-yl)-2-methoxyphenyl)amino)-7H-pyrrolo[2,3-d] pyrimidine-5-carbonitrile] | < 0.1 | 0.05 to 0.2
CCOc1cc(-c2nncn2C)ccc1Nc1nc(NCCS(C)(=O)=O)c2c(C#N)c[nH]c2n1 [Example 14, 2-((2-ethoxy-4-(4-methyl-4H-1,2,4-triazol-3-yl)phenyl)amino)-4-((2-(methylsulfonyl)ethyl)amino)-7H-pyrrolo[2,3-d] pyrimidine-5-carbonitrile] | 0.1 to 1 | < 0.05
N#Cc1c[nH]c2nc(Nc3ccc(-c4ccc(CN5CCN(C6CC6)CC5)cc4)cc3)nc(NC3CCCCC3)c12 [Example 22, 4-(cyclohexylamino)-2-((4′-((4-cyclopropylpiperazin-l-yl)methyl)-[1,1′-biphenyl]-4-yl)amino)-7H-pyrrolo[2,3-d] pyrimidine-5-carbonitrile] | 0.1 to 1 | < 0.05
CNc1nc(Nc2ccc(-c3ccnn3C)cc2OC)nc2[nH]cc(C#N)c12 [Example 9, 2-((2-methoxy-4-(1-methyl-1H-pyrazol-5-yl)phenyl)amino)-4-(methylamino)-1H-pyrrolo[2,3-d] pyrimidine-5-carbonitrile] | > 1 | < 0.05
